Source: patent US12545673B2, “Imidazopyridine derivative and pharmaceutical composition comprising same as active ingredient” (TSD LIFE SCIENCES CO., LTD., priority 2019, dated 2026)
pIC50: −log10 of the molar value. Like-named read-outs stand apart in the source and are kept apart here.

Key:
[1] = molecular target: MLK2 (Homo sapiens (Human), UniProt Q02779); experiment: Evaluation of inhibitory activity of enzyme units, MLK2 ([γ-33P]-ATP filter assay); assay type: biochemical
[2] = molecular target: MLK1 (Homo sapiens (Human), UniProt P80192); experiment: Evaluation of inhibitory activity of enzyme units, MLK1 ([γ-33P]-ATP filter assay); assay type: biochemical
[3] = system: acute myeloid leukemia cell line U937; experiment: Cancer cell proliferation inhibitory activity evaluation 2 (CCK-8), U937; assay type: cell-based; details: Homo sapiens, read-out: Cancer cell proliferation inhibitory activity U937
[4] = system: acute lymphoblastic leukemia cell line Jurkat; experiment: Cancer cell proliferation inhibitory activity evaluation 2 (CCK-8), Jurkat; assay type: cell-based; details: Homo sapiens
[5] = system: gastric cancer cell line AGS; experiment: Cancer cell proliferation inhibitory activity evaluation 2 (CCK-8), AGS; assay type: cell-based; details: Homo sapiens, read-out: Cancer cell proliferation inhibitory activity AGS
[6] = molecular target: LRRK2 wild-type (Homo sapiens (Human), UniProt Q5S007); experiment: Evaluation of inhibitory activity against LRRK2 (affinity bead competition binding), wild-type; details: read-out: Residual active values (%) LRRK2; for remaining binding at 0.1 µM: 100 nM; for remaining binding at 0.5 µM: 500 nM
Outline: (§1)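 Competition binding against immobilized biotinylated ligand for DNA-tagged wild-type or G2019S LRRK2, produced from T7 phage-infected E. coli (MOI 0.4, 32° C.) lysate then HEK293 cells. Beads blocked and washed in SeaBlock buffer (1% BSA, 0.05% Tween 20, 1 mM DTT); compounds prepared as 40× stocks in 100% DMSO.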

[7] = molecular target: LRRK2 mutant (G2019S) (Homo sapiens (Human), UniProt Q5S007, G2019S); experiment: Evaluation of inhibitory activity against LRRK2 (affinity bead competition binding), G2019S mutant; details: read-out: Residual active values (%) LRRK2(G2019S); for remaining binding at 0.1 µM: 100 nM; for remaining binding at 0.5 µM: 500 nM
Outline: as §1

[8] = system: influenza virus PR8; experiment: microbe, parasite or virus in culture; assay type: cell-based; details: for EC50: unidentified influenza virus, PR8, MDCK, read-out: Antiviral activity (EC50, μM) PR8
[9] = system: influenza virus HK; experiment: microbe, parasite or virus in culture; assay type: cell-based; details: for EC50: unidentified influenza virus, MDCK, read-out: Antiviral activity (EC50, μM) HK
[10] = system: influenza virus LE; experiment: microbe, parasite or virus in culture; assay type: cell-based; details: for EC50: unidentified influenza virus, MDCK, read-out: Antiviral activity (EC50, μM) LE
[11] = in vitro; details: dog
[12] = molecular target: MLK3 (Homo sapiens (Human), UniProt Q16584); experiment: Evaluation of inhibitory activity of enzyme units, MLK3 ([γ-33P]-ATP filter assay); details: for IC50: read-out: IC50(nM) MLK3
[13] = system: α-SMA; experiment: Fibrosis inhibition evaluation 2, palmitic acid-induced HepG2, real-time PCR, α-SMA; details: palmitic acid-induced HepG2 (Table 8)
[14] = system: TGF-β1; experiment: Fibrosis inhibition evaluation 2, palmitic acid-induced HepG2, real-time PCR, TGF-β1
[15] = system: Fibronectin-1; experiment: Fibrosis inhibition evaluation 2, palmitic acid-induced HepG2, real-time PCR, Fibronectin-1
[16] = system: human breast cancer cell line MDA-MB-231; experiment: Cancer cell proliferation inhibitory activity evaluation 1 (CCK-8), MDA-MB-231; assay type: cell-based
[17] = system: acute myeloid leukemia cell line U937; experiment: Cancer cell proliferation inhibitory activity evaluation 1 (CCK-8), U937; assay type: cell-based; details: Homo sapiens, read-out: Cancer cell proliferation inhibitory activity U937
[18] = system: colorectal cancer cell line HT-29; experiment: Cancer cell proliferation inhibitory activity evaluation 1 (CCK-8), HT-29; assay type: cell-based; details: Homo sapiens, read-out: Cancer cell proliferation inhibitory activity HT29
[19] = system: chronic myeloid leukemia cell line K562; experiment: Cancer cell proliferation inhibitory activity evaluation 1 (CCK-8), K562; assay type: cell-based; details: Homo sapiens, read-out: Cancer cell proliferation inhibitory activity K562
[20] = system: α-SMA; experiment: Fibrosis inhibition evaluation 1, palmitic acid-induced HepG2, real-time PCR, α-SMA; assay type: cell-based, human; details: palmitic acid-induced HepG2 (Table 6)
[21] = system: Col1A1; experiment: Fibrosis inhibition evaluation 1, palmitic acid-induced HepG2, real-time PCR, Col1A1; assay type: cell-based, human
[22] = system: Col6A3; experiment: Fibrosis inhibition evaluation 1, palmitic acid-induced HepG2, real-time PCR, Col6A3; assay type: cell-based, human
[23] = 72 h, read-out: Cancer cell proliferation inhibitory activity Jurkat
[24] = U-937, 10 μM, 72 hours, CCK-8 (Table 3)
[25] = 10 μM, 72 hours, CCK-8, read-out: Cancer cell proliferation inhibitory activity Jurkat

Chain of LRRK2 wild-type (Q5S007 whole entry, looked up): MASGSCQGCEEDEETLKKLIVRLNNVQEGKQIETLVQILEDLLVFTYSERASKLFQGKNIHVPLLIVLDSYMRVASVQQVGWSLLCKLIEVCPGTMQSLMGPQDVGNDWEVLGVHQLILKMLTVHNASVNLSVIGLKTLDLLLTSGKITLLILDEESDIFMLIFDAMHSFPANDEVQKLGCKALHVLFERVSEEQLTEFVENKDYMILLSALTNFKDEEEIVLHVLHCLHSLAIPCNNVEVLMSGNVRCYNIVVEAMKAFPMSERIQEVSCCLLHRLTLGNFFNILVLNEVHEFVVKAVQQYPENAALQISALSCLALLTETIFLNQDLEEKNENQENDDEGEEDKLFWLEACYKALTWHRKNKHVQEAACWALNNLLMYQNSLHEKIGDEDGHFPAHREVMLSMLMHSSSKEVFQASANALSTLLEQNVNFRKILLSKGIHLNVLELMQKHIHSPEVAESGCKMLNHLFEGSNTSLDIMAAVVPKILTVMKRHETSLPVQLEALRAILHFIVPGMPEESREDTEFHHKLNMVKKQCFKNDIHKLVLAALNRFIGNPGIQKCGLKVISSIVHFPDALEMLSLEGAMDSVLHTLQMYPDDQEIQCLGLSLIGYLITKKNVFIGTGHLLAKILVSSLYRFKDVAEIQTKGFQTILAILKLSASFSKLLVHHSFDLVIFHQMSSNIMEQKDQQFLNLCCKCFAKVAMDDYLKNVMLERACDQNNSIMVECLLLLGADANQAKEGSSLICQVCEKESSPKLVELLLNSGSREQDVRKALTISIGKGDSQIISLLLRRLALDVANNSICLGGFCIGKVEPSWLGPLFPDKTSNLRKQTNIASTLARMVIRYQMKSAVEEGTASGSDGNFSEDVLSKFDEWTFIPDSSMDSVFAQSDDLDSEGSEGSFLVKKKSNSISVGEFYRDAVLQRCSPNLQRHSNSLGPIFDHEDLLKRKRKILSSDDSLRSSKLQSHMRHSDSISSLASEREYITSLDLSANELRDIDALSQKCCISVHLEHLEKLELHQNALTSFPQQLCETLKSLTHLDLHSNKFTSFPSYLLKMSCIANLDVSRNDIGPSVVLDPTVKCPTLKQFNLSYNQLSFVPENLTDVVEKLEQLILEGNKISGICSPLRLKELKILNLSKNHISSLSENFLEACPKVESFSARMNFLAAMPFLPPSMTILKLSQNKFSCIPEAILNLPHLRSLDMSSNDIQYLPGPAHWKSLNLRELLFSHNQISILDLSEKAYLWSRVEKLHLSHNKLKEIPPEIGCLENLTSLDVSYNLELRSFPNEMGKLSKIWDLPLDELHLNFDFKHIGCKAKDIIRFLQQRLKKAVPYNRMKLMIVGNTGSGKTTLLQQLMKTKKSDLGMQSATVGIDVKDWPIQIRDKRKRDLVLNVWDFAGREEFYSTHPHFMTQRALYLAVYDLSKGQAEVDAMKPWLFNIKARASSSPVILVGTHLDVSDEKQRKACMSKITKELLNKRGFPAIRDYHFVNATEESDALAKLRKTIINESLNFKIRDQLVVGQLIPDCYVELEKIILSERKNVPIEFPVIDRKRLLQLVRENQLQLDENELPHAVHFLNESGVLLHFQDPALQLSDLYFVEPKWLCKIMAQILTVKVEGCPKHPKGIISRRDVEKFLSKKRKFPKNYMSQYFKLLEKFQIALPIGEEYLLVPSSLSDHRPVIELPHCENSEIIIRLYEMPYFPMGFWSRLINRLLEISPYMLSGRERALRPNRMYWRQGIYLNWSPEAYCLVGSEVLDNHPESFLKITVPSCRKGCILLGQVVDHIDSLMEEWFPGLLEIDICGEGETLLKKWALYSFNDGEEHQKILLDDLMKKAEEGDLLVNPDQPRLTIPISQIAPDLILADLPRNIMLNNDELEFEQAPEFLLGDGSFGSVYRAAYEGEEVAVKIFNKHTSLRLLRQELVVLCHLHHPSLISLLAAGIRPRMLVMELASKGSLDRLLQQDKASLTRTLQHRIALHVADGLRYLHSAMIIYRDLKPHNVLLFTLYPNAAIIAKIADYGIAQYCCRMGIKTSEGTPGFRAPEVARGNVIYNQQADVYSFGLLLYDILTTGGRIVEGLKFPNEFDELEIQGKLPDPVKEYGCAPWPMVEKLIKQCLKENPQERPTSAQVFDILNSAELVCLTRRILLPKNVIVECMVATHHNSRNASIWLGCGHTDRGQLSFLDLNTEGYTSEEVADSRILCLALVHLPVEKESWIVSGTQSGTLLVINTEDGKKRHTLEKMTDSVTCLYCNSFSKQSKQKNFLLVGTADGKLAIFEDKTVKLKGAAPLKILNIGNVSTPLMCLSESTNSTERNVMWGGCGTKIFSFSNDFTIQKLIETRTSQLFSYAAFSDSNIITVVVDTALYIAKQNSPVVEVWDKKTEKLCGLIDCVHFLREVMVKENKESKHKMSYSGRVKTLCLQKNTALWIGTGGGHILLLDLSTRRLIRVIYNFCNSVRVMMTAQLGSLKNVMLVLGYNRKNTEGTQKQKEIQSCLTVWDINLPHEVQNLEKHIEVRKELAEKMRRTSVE
Chain of MLK3 (Q16584 whole entry, looked up): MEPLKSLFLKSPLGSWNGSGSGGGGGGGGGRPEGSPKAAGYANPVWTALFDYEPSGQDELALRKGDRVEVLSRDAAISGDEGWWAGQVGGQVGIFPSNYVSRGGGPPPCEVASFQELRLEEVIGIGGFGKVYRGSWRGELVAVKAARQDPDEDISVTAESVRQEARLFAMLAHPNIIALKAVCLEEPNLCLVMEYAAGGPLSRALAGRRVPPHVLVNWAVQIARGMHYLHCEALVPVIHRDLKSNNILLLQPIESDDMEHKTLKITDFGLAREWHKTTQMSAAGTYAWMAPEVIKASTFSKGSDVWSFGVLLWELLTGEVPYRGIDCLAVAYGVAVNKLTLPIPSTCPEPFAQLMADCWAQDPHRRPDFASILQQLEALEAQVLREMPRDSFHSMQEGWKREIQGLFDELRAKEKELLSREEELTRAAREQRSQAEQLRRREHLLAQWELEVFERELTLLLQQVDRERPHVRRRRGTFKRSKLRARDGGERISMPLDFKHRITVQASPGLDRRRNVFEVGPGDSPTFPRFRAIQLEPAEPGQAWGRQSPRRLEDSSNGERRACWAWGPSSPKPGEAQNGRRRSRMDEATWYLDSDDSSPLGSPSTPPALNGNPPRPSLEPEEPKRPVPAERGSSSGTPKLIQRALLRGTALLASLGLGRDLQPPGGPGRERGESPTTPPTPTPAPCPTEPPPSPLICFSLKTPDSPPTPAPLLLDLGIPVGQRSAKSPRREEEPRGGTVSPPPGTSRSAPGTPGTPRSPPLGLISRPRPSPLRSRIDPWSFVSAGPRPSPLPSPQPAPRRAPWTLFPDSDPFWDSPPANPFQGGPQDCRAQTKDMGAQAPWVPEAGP
Chain of MLK1 (P80192 whole entry, looked up): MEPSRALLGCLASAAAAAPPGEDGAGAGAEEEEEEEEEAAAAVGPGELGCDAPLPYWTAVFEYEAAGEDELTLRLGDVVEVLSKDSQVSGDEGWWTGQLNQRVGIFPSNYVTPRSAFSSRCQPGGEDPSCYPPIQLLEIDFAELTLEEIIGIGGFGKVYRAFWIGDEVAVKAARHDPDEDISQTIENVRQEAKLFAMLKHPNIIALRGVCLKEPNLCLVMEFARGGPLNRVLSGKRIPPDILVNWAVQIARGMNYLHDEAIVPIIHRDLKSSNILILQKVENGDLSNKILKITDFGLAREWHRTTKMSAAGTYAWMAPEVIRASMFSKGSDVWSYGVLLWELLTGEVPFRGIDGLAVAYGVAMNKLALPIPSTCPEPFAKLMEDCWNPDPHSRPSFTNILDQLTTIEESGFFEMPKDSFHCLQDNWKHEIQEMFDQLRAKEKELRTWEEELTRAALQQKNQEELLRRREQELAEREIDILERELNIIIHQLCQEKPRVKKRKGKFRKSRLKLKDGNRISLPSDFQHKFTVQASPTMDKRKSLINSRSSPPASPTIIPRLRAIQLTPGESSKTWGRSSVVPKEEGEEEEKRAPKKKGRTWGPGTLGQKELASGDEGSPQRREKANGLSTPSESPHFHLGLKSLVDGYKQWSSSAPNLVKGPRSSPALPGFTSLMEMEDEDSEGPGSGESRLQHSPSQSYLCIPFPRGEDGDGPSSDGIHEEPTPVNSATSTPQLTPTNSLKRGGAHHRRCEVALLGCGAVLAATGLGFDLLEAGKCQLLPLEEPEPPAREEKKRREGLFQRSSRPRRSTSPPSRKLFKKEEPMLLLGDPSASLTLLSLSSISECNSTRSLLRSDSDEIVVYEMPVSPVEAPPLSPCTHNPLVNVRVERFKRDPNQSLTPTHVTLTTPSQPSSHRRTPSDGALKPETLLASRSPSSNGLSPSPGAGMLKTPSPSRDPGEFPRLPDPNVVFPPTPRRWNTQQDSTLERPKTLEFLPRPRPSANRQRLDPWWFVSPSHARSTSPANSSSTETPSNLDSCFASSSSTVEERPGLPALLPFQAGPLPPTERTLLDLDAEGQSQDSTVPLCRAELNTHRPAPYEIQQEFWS
Chain of LRRK2 mutant (G2019S) (Q5S007 whole entry G2019S, looked up): as the sequence (Q5S007 whole entry, looked up) above, with G2019S counted along it

SMILES | IC50 [1] [nM] | IC50 [2] [nM] | inhibition at 10 µM ([3]; U-937, 72 h) [%] | inhibition at 10 µM [4, 23] [%] | inhibition at 10 µM ([5]; 72 h) [%] | remaining binding at 0.1 µM [6] [%] | remaining binding at 0.5 µM [6] [%] | remaining binding at 0.1 µM [7] [%] | remaining binding at 0.5 µM [7] [%] | EC50 [8] [µM] | Selectivity index: CC50/EC50 HK [9] | EC50 [9] [µM] | EC50 [10] [µM] | CC50 at 3 days [11] [µM] | IC50 [12] [nM] | inhibition at 10 µM [3, 24] [%] | inhibition at 10 µM [4, 25] [%] | inhibition at 10 µM ([5]; 10 μM, 72 hours, CCK-8) [%] | other results
CCS(=O)(=O)N1CC[C@H](Nc2c(Br)cnc3nc(-c4cc(C)n(-c5cccc(NS(C)(=O)=O)c5)c4C)[nH]c23)C1 [Example 12, (S)—N-(3-(3-(6-bromo-7-((1-(ethylsulfonyl)pyrrolidine-3-yl)amino)-1H-imidazo[4,5-b]pyridine-2-yl)-2,5-dimethyl-1H-pyrrol-1-yl)phenyl) methanesulfonamide] | 65 | 52 | 10 to 50 | 10 to 50 | > 50 | 16 | 3.7 | 3.6 | 0.5 | 100 | >3.7 | 27 | > 100 | > 100 | 7 |  |  |  | Relative degree of expression inhibition (%) α-SMA [13]: 49.92%; Relative degree of expression inhibition (%) TGF-β1 [14]: 113.03%; Relative degree of expression inhibition (%) Fibronectin-1 [15]: 74.32%
CCS(=O)(=O)N1CC[C@H](Nc2c(Br)cnc3nc(-c4cc(C)n(-c5cccc(S(N)(=O)=O)c5)c4C)[nH]c23)C1 [Example 23, (S)-3-(3-(6-bromo-7-((1-(ethylsulfonyl)pyrrolidine-3-yl)amino)-1H-imidazo[4,5-b]pyridine-2-yl)-2,5-dimethyl-1H-pyrrol-1-yl)benzenesulfonamide] | 56 | 25 | 10 to 50 | > 50 | 10 to 50 |  |  |  |  | > 100 | >3.2 | 31.6 | > 100 | > 100 | 17 |  |  |  | 
CCS(=O)(=O)N1CC[C@H](Nc2c(Br)cnc3nc(-c4cc(C)n(-c5ccc(OCCN6CCOCC6)cc5)c4C)[nH]c23)C1 [Example 4, (S)-6-bromo-2-(2,5-dimethyl-1-(4-(2-morpholinoethoxy)phenyl)-1H-pyrrol-3-yl)-N-(1-(ethylsulfonyl)pyrrolidine-3-yl)-1H-imidazo[4,5-b]pyridine-7-amine] |  |  |  |  |  |  |  |  |  | 11.1 | >10.2 | 9.8 | 9.9 | > 100 |  | > 50 | > 50 | > 50 | inhibition at 10 µM ([16]; MDA-MB-231, 10 μM, 72 hours, CCK-8, read-out: Cancer cell proliferation inhibitory activity MDAMB231): 10 to 50%; inhibition at 10 µM ([17]; U-937, 10 μM, 72 hours, CCK-8 (Table 2)): > 50%; inhibition at 10 µM ([18]; HT-29, 10 μM, 72 hours, CCK-8): > 50%; inhibition at 10 µM ([19]; K562, 10 μM, 72 hours, CCK-8): > 50%; Selectivity index: CC50/EC50 LE [10]: >10.1
CCS(=O)(=O)N1CC[C@H](Nc2c(Br)cnc3[nH]c(-c4cc(C)n(-c5cc(NS(C)(=O)=O)ccc5C)c4C)nc23)C1 [Example 7, N-(3-(3-(6-bromo-7-(((S)-1-(ethylsulfonyl)pyrrolidine-3-yl)amino)-3H-imidazo[4,5-b]pyridine-2-yl)-2,5-dimethyl-1H-pyrrol-1-yl)-4-methylphenyl) methanesulfonamide] |  | 44 | > 50 | > 50 | > 50 | 2.9 | 0.4 | 2.3 | 1.5 | 31.9 | >2.5 | 40 | > 100 | > 100 | 6 |  |  |  | inhibition at 10 µM ([16]; MDA-MB-231, 72 h, read-out: Cancer cell proliferation inhibitory activity MDAMB231): 10 to 50%; inhibition at 10 µM ([17]; U-937, 72 h): > 50%; inhibition at 10 µM ([18]; HT-29, 72 h): 10 to 50%; inhibition at 10 µM ([19]; K562, 72 h): > 50%; Relative degree of expression inhibition (%) α-SMA [20]: 73.1%; Relative degree of expression inhibition (%) Col1A1 [21]: 200.2%; Relative degree of expression inhibition (%) Col6A3 [22]: 116.2%
CCS(=O)(=O)N1CC[C@H](Nc2c(Br)cnc3[nH]c(-c4cc(C)n(-c5cc(S(N)(=O)=O)ccc5Cl)c4C)nc23)C1 [Example 17, 3-(3-(6-bromo-7-(((S)-1-(ethylsulfonyl)pyrrolidine-3-yl)amino)-3H-imidazo[4,5-b]pyridine-2-yl)-2,5-dimethyl-1H-pyrrol-1-yl)-4-chlorobenzenesulfonamide] |  |  |  |  |  |  |  |  |  | 92.9 | >9.3 | 10.8 | > 100 | > 100 |  | 10 to 50 | > 50 | > 50 | Selectivity index: CC50/EC50 PR8 [8]: >1.1; pIC50 [12]: 7.92
